# Experimental data taken from ChEMBL document CHEMBL1201862, “PubChem BioAssay data set” (2004).
#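 These data come from cells grown in 96-well plates and exposed to compound for 48 hours at five concentrations. At the GI50, growth is halved.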 Calls of active or inactive are those of the source. Rule as the data show it: active = GI50 up to about 1.1 µM and inactive = higher.
# Tests used:
# Test in all cases: NCI tumour cell line growth inhibition, 48 h
# LOX IMVI = test system: LOX IMVI
# MOLT-4 = test system: MOLT-4
# M14 = test system: M14
# NCI/ADR-RES = test system: NCI/ADR-RES
# BT-549 = test system: BT-549
# HCT-116 = test system: HCT-116
# IGROV-1 = test system: IGROV-1
# TK-10 = test system: TK-10
# HT-29 = test system: HT-29
# KM12 = test system: KM12
# SK-MEL-28 = test system: SK-MEL-28
# OVCAR-5 = test system: OVCAR-5
# OVCAR-3 = test system: OVCAR-3
# NCI-H226 = test system: NCI-H226
# SF-268 = test system: SF-268
# SK-OV-3 = test system: SK-OV-3
# CAKI-1 = test system: CAKI-1
# OVCAR-4 = test system: OVCAR-4
# NCI-H23 = test system: NCI-H23
# HL-60 = test system: HL-60
# U-251 = test system: U-251
# RXF 393 = test system: RXF 393
# SN12C = test system: SN12C
# A498 = test system: A498
# MDA-N = test system: MDA-N
# ACHN = test system: ACHN
# MCF7 = test system: MCF7
# SK-MEL-2 = test system: SK-MEL-2
# UO-31 = test system: UO-31
# OVCAR-8 = test system: OVCAR-8
# SNB-75 = test system: SNB-75
# HCC 2998 = test system: HCC 2998
# HOP-92 = test system: HOP-92
# MDA-MB-231 = test system: MDA-MB-231
# EKVX = test system: EKVX
# MDA-MB-435 = test system: MDA-MB-435
# 786-0 = test system: 786-0
# HOP-62 = test system: HOP-62
# SK-MEL-5 = test system: SK-MEL-5
# NCI-H460 = test system: NCI-H460
# COLO 205 = test system: COLO 205
# SNB-19 = test system: SNB-19
# DU-145 = test system: DU-145
# SF-295 = test system: SF-295
# A549 = test system: A549
# SF-539 = test system: SF-539
# UACC-257 = test system: UACC-257
# T47D = test system: T47D
# SW-620 = test system: SW-620
# HCT-15 = test system: HCT-15
# K562 = test system: K562
# CCRF-CEM = test system: CCRF-CEM
# RPMI-8226 = test system: RPMI-8226
# Hs-578T = test system: Hs-578T
# PC-3 = test system: PC-3
# Malme-3M = test system: Malme-3M
# NCI-H522 = test system: NCI-H522
# UACC-62 = test system: UACC-62
# SR = test system: SR
smiles,measurement,setting,value
NC(=S)N/N=C1\NC(=O)/C(=C/c2ccc3c(c2)OCO3)S1,GI50,LOX IMVI,28.3 µM (inactive)
same,GI50,MOLT-4,21.4 µM (inactive)
same,GI50,M14,24.5 µM (inactive)
same,GI50,NCI/ADR-RES,27.8 µM (inactive)
same,GI50,BT-549,25.1 µM (inactive)
same,GI50,HCT-116,29.1 µM (inactive)
same,GI50,IGROV-1,17.1 µM (inactive)
same,GI50,TK-10,40.8 µM (inactive)
same,GI50,HT-29,28.6 µM (inactive)
same,GI50,KM12,20.9 µM (inactive)
same,GI50,SK-MEL-28,24 µM (inactive)
same,GI50,OVCAR-5,24.2 µM (inactive)
same,GI50,OVCAR-3,19.2 µM (inactive)
same,GI50,NCI-H226,23.5 µM (inactive)
same,GI50,SF-268,31.7 µM (inactive)
same,GI50,SK-OV-3,30 µM (inactive)
same,GI50,CAKI-1,25.3 µM (inactive)
same,GI50,OVCAR-4,24.3 µM (inactive)
same,GI50,NCI-H23,22.9 µM (inactive)
same,GI50,HL-60,20.6 µM (inactive)
same,GI50,U-251,22.6 µM (inactive)
same,GI50,RXF 393,21.1 µM (inactive)
same,GI50,SN12C,36.7 µM (inactive)
same,GI50,A498,14.3 µM (inactive)
same,GI50,MDA-N,27.5 µM (inactive)
same,GI50,ACHN,32.1 µM (inactive)
same,GI50,MCF7,32.7 µM (inactive)
same,GI50,SK-MEL-2,27.2 µM (inactive)
same,GI50,UO-31,30.1 µM (inactive)
same,GI50,OVCAR-8,24.8 µM (inactive)
same,GI50,SNB-75,14.3 µM (inactive)
same,GI50,HCC 2998,33.7 µM (inactive)
same,GI50,HOP-92,21.5 µM (inactive)
same,GI50,MDA-MB-231,25.8 µM (inactive)
same,GI50,EKVX,21.6 µM (inactive)
same,GI50,MDA-MB-435,27.1 µM (inactive)
same,GI50,786-0,33.9 µM (inactive)
same,GI50,HOP-62,20.9 µM (inactive)
same,GI50,SK-MEL-5,16.3 µM (inactive)
same,GI50,NCI-H460,30.8 µM (inactive)
same,GI50,COLO 205,26.3 µM (inactive)
same,GI50,SNB-19,18 µM (inactive)
same,GI50,DU-145,28.2 µM (inactive)
same,GI50,SF-295,36.5 µM (inactive)
same,GI50,A549,30.6 µM (inactive)
same,GI50,SF-539,35.1 µM (inactive)
same,GI50,UACC-257,31.6 µM (inactive)
same,GI50,T47D,19.3 µM (inactive)
same,GI50,SW-620,31.8 µM (inactive)
same,GI50,HCT-15,26.7 µM
Cc1ccccc1NC(=S)N/N=C1\C(=O)Nc2ccccc21,GI50,LOX IMVI,> 100 µM (inactive)
same,GI50,MOLT-4,> 100 µM (inactive)
same,GI50,M14,> 100 µM (inactive)
same,GI50,K562,> 100 µM (inactive)
same,GI50,CCRF-CEM,> 100 µM (inactive)
same,GI50,RPMI-8226,> 100 µM (inactive)
same,GI50,NCI/ADR-RES,> 100 µM (inactive)
same,GI50,HCT-116,> 100 µM (inactive)
same,GI50,IGROV-1,> 100 µM (inactive)
same,GI50,TK-10,> 100 µM (inactive)
same,GI50,HT-29,> 100 µM (inactive)
same,GI50,KM12,> 100 µM (inactive)
same,GI50,SK-MEL-28,15.1 µM (inactive)
same,GI50,OVCAR-5,> 100 µM (inactive)
same,GI50,OVCAR-3,> 100 µM (inactive)
same,GI50,NCI-H226,> 100 µM (inactive)
same,GI50,SF-268,15.1 µM (inactive)
same,GI50,SK-OV-3,> 100 µM (inactive)
same,GI50,CAKI-1,> 100 µM (inactive)
same,GI50,OVCAR-4,> 100 µM (inactive)
same,GI50,NCI-H23,> 100 µM (inactive)
same,GI50,HL-60,> 100 µM (inactive)
same,GI50,U-251,> 100 µM (inactive)
same,GI50,RXF 393,> 100 µM (inactive)
same,GI50,Hs-578T,> 100 µM (inactive)
same,GI50,SN12C,> 100 µM (inactive)
same,GI50,A498,86.3 µM (inactive)
same,GI50,MDA-N,> 100 µM (inactive)
same,GI50,ACHN,> 100 µM (inactive)
same,GI50,MCF7,> 100 µM (inactive)
same,GI50,SK-MEL-2,> 100 µM (inactive)
same,GI50,UO-31,> 100 µM (inactive)
same,GI50,PC-3,> 100 µM (inactive)
same,GI50,OVCAR-8,> 100 µM (inactive)
same,GI50,SNB-75,> 100 µM (inactive)
same,GI50,HCC 2998,> 100 µM (inactive)
same,GI50,HOP-92,> 100 µM (inactive)
same,GI50,Malme-3M,> 100 µM (inactive)
same,GI50,MDA-MB-231,> 100 µM (inactive)
same,GI50,EKVX,> 100 µM (inactive)
same,GI50,MDA-MB-435,> 100 µM (inactive)
same,GI50,NCI-H522,> 100 µM (inactive)
same,GI50,786-0,> 100 µM (inactive)
same,GI50,HOP-62,> 100 µM (inactive)
same,GI50,SK-MEL-5,> 100 µM (inactive)
same,GI50,NCI-H460,> 100 µM (inactive)
same,GI50,UACC-62,> 100 µM (inactive)
same,GI50,COLO 205,> 100 µM (inactive)
same,GI50,SNB-19,> 100 µM (inactive)
same,GI50,DU-145,31.4 µM (inactive)
same,GI50,SF-295,> 100 µM (inactive)
same,GI50,A549,> 100 µM (inactive)
same,GI50,SF-539,> 100 µM (inactive)
same,GI50,UACC-257,> 100 µM (inactive)
same,GI50,T47D,> 100 µM (inactive)
same,GI50,SW-620,> 100 µM (inactive)
same,GI50,SR,70.6 µM (inactive)
same,GI50,HCT-15,> 100 µM
